This is an account of results in patent US11807647B2, “Crystal form of hepatitis B surface antigen inhibitor and application thereof” (FUJIAN AKEYLINK BIOTECHNOLOGY CO., LTD., priority 2019, dated 2023).

The structures appear in SMILES notation.

Series [1] deals with hepatitis B surface antigen (HBsAg). Kind of series: In vitro HBV activity test, hepatitis B virus S antigen by ELISA in HepG2.2.15 cells. Format: cell-based. On the procedure:
(§1) 1. Cell Lines: HepG2.2.15 Cells
(§2) 2. Reagents: • Pancreatin (Invitrogen-25300062) • DPBS (Corning-21031CVR) • Dimethyl sulfoxide (Sigma-D2650-100 ML) • High-throughput DNA purification kit (QIAamp 96 DNA Blood Kit, Qiagen-51162) • Quantitative faststart universal probe reagent (FastStart Universal Probe Master, Roche-04914058001) • Hepatitis B surface antigen quantitative detection kit (Autobio, CL 0310) • 3. Consumables and Instruments • 96-well cell culture plate (Corning-3599) • CO2 incubator (HERA-CELL-240) • Optical sealing film (ABI-4311971) • Quantitative PCR 96-well plate (Applied Biosystems-4306737) • Fluorescence quantitative PCR instrument (Applied Biosystems-7500 real time PCR system)
(§3) 1. HepG2.2.15 cells (4×10^4 cells/well) were seeded to a 96-well plate and incubated overnight at 37° C., 5% CO2.
2. […]
6.3 Determination of the content of hepatitis B virus S antigen by ELISA involve respectively adding 50 μl of samples and standards to a reaction plate, and then adding 50 μL of enzyme conjugate to each well; shaking same to mix uniformly, and incubating at 37° C. for 60 minutes; washing the plate 5 times with a washing solution, adding 50 μL of luminescent substrate to each well, mixing uniformly, and reacting same in the dark at room temperature for 10 minutes; and finally, detecting chemiluminescence intensity with a microplate reader. […]
(ELISA stands for enzyme-linked immunosorbent assay.)

Series [2] has as its system HBV-DNA. Put plainly: In vitro HBV activity test, HBV-DNA by quantitative PCR in HepG2.2.15 cells. It is filed as cell-based, Hepatitis B Virus. On the procedure: as §1, §2, §3
2. On day 2, the compound was diluted to a total of 8 concentrations, with a 3-fold gradient dilution. The compounds at different concentrations were added to culture wells in duplicate. The final concentration of dimethyl sulfoxide in the culture medium was 0.5%. 10 μM ETV was used as 100% inhibition control; 0.5% dimethyl sulfoxide was used as a 0% inhibition control.
3. On day 5, the culture medium was replaced with a fresh culture medium containing the compound.
4. […]

Series [3] concerns hepatitis B. To be noted: woodchuck model, used as a single drug; cited from earlier work.
The nature of series [4]: Physical stability test of crystal form A as a solid under various temperature, humidity and light conditions. It is filed as physicochemical. The procedure: 4 samples of crystal form A of the compound of formula (I) were weighed in parallel (about 100 mg each), placed on the bottom of glass sample bottles, and spread out as a thin layer. The bottles were sealed with aluminum foil paper, and some small holes were made on the aluminum foil paper to ensure that the samples could fully contact with ambient air. The prepared 4 samples were placed under a relative humidity of 25° C./92.5%, 60° C., 40° C./75% and light conditions, respectively, to investigate the physical stability of the samples on day 10. In addition, about 100 mg of crystal form A solid of the compound of formula (I) was separately weighed, placed at the bottom of a glass sample bottle, sealed with a screw cap and stored at −20° C. for use as a control sample. On day 10, all samples were taken out, returned to room temperature, and observed for appearance changes, and the crystal forms of the samples were detected by XRPD. By comparing an accelerated sample with the control sample, the physical stability of crystal form A of the compound of formula (I), as a solid, was determined.

Series [5] in a line: Stability test of crystal form A as a solid under high temperature and high humidity conditions. It is filed as physicochemical. As to conditions: 40° C./75% humidity. The procedure: 2 samples of crystal form A of the compound of formula (I) were weighed in parallel (about 100 mg each), placed on the bottom of glass sample bottles, and spread out as a thin layer. The bottles were sealed with aluminum foil paper, and some small holes were made on the aluminum foil paper to ensure that the samples could fully contact with ambient air. The bottles were placed in a constant temperature and humidity chamber at 40° C./75% humidity. The samples placed under the above-mentioned conditions were sampled and tested on day 5 and day 10. The test results were compared with initial test results on day 0.

The mark [6] stands for this setting: 25° C./92.5% relative humidity (open), Day 10.
Where [7] appears, read: 40° C./75% relative humidity (open), Day 10.
[8] abbreviates: Day 0 (−20° C. storage with seal) (control sample), time point Day 10.

For `COCCCOc1cc2c(cc1Cl)-c1cc(=O)c(C(=O)O)cn1[C@H](c1cccs1)O2` [Compound of formula (I)], the “inhibition of hepatitis B surface antigen (HBsAg) (experimental conclusion)” value in series [1] (HepG2.2.15 cells) is “effectively inhibit”. The EC50 – broadly, the midpoint of the concentration-response curve – in series [1] (Hepatitis B virus, HepG2.2.15, 192 h, read-out: HBsAg EC50) amounted to 1.54 nM; in series [2] (Hepatitis B virus, 192 h, culture medium collected on day 8), 1.13 nM. In addition, in series [2], the “inhibition of HBV-DNA (experimental conclusion)” value is given as “effectively inhibit”.
For `COCCCOc1cc2c(cc1OC)-c1cc(=O)c(C(=O)O)cn1[C@H](C(C)C)C2` [RG7834], in series [3], the “reduction of HBV-DNA” value is given as 1.7 Log and the “reduction of surface antigens” value is recorded as 2.57 Log.
As for `COCCCOc1cc2c(cc1Cl)-c1cc(=O)c(C(=O)O)cn1[C@H](c1cccs1)O2` [crystal form A], the Character result is “White powder” in series [4] (setting [6]); “White powder” in series [4] (setting [7]); “White powder” in series [4] (60° C. (open), Day 10); “White powder” in series [4] (setting [8]); “White powder” in series [4] (Light, Day 10). Besides, the Polymorph entry in series [4] (setting [6]) is listed as “Polymorph A”; in series [4] (setting [7]), “Polymorph A”; in series [4] (60° C. (open), Day 10), “Polymorph A”; in series [4] (setting [8]), “Polymorph A”; in series [4] (Light, Day 10) it was “Polymorph A”; in series [5] (day 0 (initial)) it was “Polymorph A”. Further, the Polymorph entry in series [5] (day 5) and in series [5] (day 10) was “Polymorph A” in each case. The Purity in series [4] (setting [6]) is 99.80%; in series [4] (setting [7]) it was 99.79%; in series [4] (60° C. (open), Day 10) it was 99.75%; in series [4] (setting [8]) it was 99.79%; in series [4] (Light, Day 10) it was 99.71%; in series [5] (day 0 (initial)), 99.79%. The Purity in series [5] (day 5) and in series [5] (day 10) was 99.79% each time. The “stability (experimental conclusion)” value is “good stability” in series [4] (solid, various temperature, humidity and light conditions, day 10); “good stability” in series [5] (solid, up to day 10). Also, the Appearance entry in series [5] (day 0 (initial)), in series [5] (day 5) and in series [5] (day 10) was “White powder” each time. Also, the Total impurities in series [5] (day 0 (initial)), in series [5] (day 5) and in series [5] (day 10) was 0.21% in each case.
